For one series, the system named is rumen methanogens. The note with it: cited from earlier work; for suppression of CH4: bacteriocins, in vitro.
The next series relates to CH4 production. The note with it: cited from earlier work.
In series [1] the test system is Mbb. Ruminantium, Ms. Mazei, and Mm. mobile. As to conditions: cited from earlier work.
The next series has as its system cattle. As to conditions: cited from earlier work.
A short description of series [2]: Adsorbent study: binding affinity and adsorptive capacity for 3NOP (HPLC at 230 nm).
From the text: The solution was then placed in an ultrasonic bath for ˜4 hr and then allowed to equilibrate over 24 hr.
The test system of the next series is rumen Methanobrevibacter. As to conditions: 5.6 μmol/L, in vitro; cited from earlier work.
A short description of series [3]: 3NOP to adsorbent ratio study. Format: physicochemical. The note with it: distilled water at 1% 3NOP loading, 24 hr. As to the method: Optimal loading of 3NOP onto adsorbents was determined by varying ratios of 3NOP to adsorbent. 3NOP and adsorbent were speed mixed at 2000 rpm for 1 min. at the following ratios by weight: 1:1.5, 1:2, 1:2.5. The adsorbed 3NOP powder mixture was then placed in distilled water at 1% 3NOP loading. The solution was allowed to equilibrate for 24 hr and then an aliquot was taken for HPLC to determine the reduction in 3NOP concentration.

The next series concerns sheep. The note with it: cited from earlier work.
A short description of series [4]: 3NOP pH and temperature stability (HPLC). Format: physicochemical. The note with it: 1-month, 4-30° C., pH 4-10. As for the experimental part: 3NOP pH and Temperature Stability: Confirmed via HPLC over a 1-month time period at temperature between 4-30° C. and pH 4-10.
Series [5] can be described thus: 3NOP volatility (mass loss open to air). The series is classed as physicochemical. The note with it: 500 mg open to air, 18-24° C., 15-30% RH, 6 days. As for the experimental part:
3NOP Volatility:500 mg of 3NOP in a 5 dram vial was left open to air at ˜18-24° C. at 15-30% RH over the course of 6 days. Average mass loss is ˜0.25% per day.

The next series has as its system goats. The note with it: 10 g/day/goat; cited from earlier work.
Where [6] appears, read: 0.2 g of adsorbent in 10 mL of 1% 3NOP/H2O, after 24 hr, Control 8.258.
The mark [7] stands for this setting: beef cattle, fed at […] of DM intake.
[8] abbreviates: dairy cows, 40-80 mg/kg feed DM.

Where two headings read alike, the source gives them in different places. Where only a bound is given, the exact number is not on record here.

Regarding Bovicin HC5, in the series on rumen methanogens, the “suppression of CH4” value is 50%.
Consider `O=C(O)/C=C/c1ccc(O)cc1` [p-coumaric acid], for which, in the series with CH4 production (12 mM), the “maximum suppression methane amount” value is “p-coumaric acid; 28.33%”.
On to `O=S(=O)(O)CCCBr` [BPS, 3-bromopropanesulfonate], for which the sensitivity of methanogens result in [1] (up to 250 μmol/L in pure cultures) is “resistant”.
Consider `ClC(Cl)Cl` [chloroform], for which the “duration of inhibition of methanogenesis” value in the series on cattle (drenching to cattle) is “up to 32 days”.
Take Cyclodextrin: the 3NOP concentration in [2] (setting [6]) is 7.676 mM.
As for `CC[C@H](C)C(=O)O[C@H]1CCC=C2C=C[C@H](C)[C@H](CC[C@@H]3C[C@@H](O)CC(=O)O3)[C@H]21` [mevastatin], in the series with rumen Methanobrevibacter, the “growth of three strains of rumen Methanobrevibacter” value is “inhibited the growth”.
`ClCBr` [BCM, bromochloromethane]: the toxicity / residues entry with cattle (steers fed grain-based diets) was “no signs of toxicity or residues in meat”.
As to Nisin, the “suppression of CH4” value in the series with rumen methanogens was “up to 40%”.
As to `O=c1[nH]c(=O)c2nccnc2[nH]1` [lumazin, 2,4-pteridinedione], in series [1] (dose-dependent from 0.06 to 0.24 mmol/L), the “CH4 production by pure methanogen cultures” value is “significantly decreased”.
With `C[N+](C)(C)CC(=O)O` [Betaine], in series [2] (setting [6]), the 3NOP concentration came to 7.202 mM.
Turning to `O=C(O)/C=C/c1ccc(O)c(O)c1` [Caffeic acid], the “maximum suppression methane amount” value in the series with CH4 production (12 mM) is 12 mM, Caffeic acid; 37.58%;.
For the molecule `O=C(O)CC(O)C(=O)O` (stereo not drawn) [Malate], in the series on cattle (setting [7]), the “decrease of CH4 production” value was 16% and the “reduction of CH4 per unit of DM intake” value is reported as 9%.
Turning to `NC(=O)CC[C@H](N)C(=O)O` [Glutamine], the 3NOP concentration in [2] (setting [6]) was 7.588 mM.
Consider `O=[N+]([O-])OCCCO` [3-Nitrooxypropanol (NOP)], for which the “maximum methane suppression amount” value in the series on CH4 production (0.08 mg/g dry matter (2019)) is reported as 0.08 mg/g dry matter; 44%; in the series with CH4 production (1.6 g, concentrate pellet) it was 23%; in the series with CH4 production (1.6 g, roughage) it was 28%.
As for `CC[C@H](C)C(=O)O[C@H]1C[C@@H](C)C=C2C=C[C@H](C)[C@H](CC[C@@H]3C[C@@H](O)CC(=O)O3)[C@H]21` [lovastatin], the “reduction of CH4 production” value in the series on rumen methanogens (Rusitec, 150 mg/L) was “approximately 42%”. In addition, the “reduction of total CH4 production by rumen methanogens” value with rumen methanogens (extracted from fermented rice straw, 48 h in vitro incubation) is around 28%.
For the molecule `N[C@@H](CCC(=O)O)C(=O)O` [Glutamic acid], the “Average Integrated Area of 3NOP in solution” value (shortened to “Average Integrated Area”) in series [3] (3NOP:Adsorbent 1:1.5) came out at 2445.9; in series [3] (3NOP:Adsorbent 1:2) it was 2452.5; in series [3] (3NOP:Adsorbent 1:2.5) it was 2446.3.
`CC[N+](=O)[O-]` [NE]: the “maximum methane suppression amount” value in the series on CH4 production (10 mmol/L) is 10 mmol/L; 96.7% (NE), 96.7%.
Regarding `N=C(N)NCCC[C@H](N)C(=O)O` [Arginine], the entries for the “Average Integrated Area” value in series [3] (3NOP:Adsorbent 1:1.5), in series [3] (3NOP:Adsorbent 1:2) and in [3] (3NOP:Adsorbent 1:2.5) were 2406.0, 2372.8 and 2435.2, respectively.
Consider Lactobacillus plantarum, for which the “maximum suppression methane amount” value with CH4 production (5.3 lg cfu/g fresh weight, 72 h) is reported as “Lactobacillus plantarum, 8.8 ml/g(72 h)”.
Take `CC[N+](=O)[O-]` [nitroethane]: the results for the “decrease of CH4 production” value with sheep (orally 24 mg/kg body weight daily for 5 days) and with sheep (orally 72 mg/kg body weight daily for 5 days) were “up to 45%” and at most 69%, respectively.
The molecule `O=S(=O)([O-])[O-].O=S(=O)([O-])[O-].O=S(=O)([O-])[O-].[Bi+3].[Bi+3]` [Bismuth Sulfate] came in with a 3NOP concentration in series [2] (setting [6]) of 8.079 mM.
For the molecule `Oc1ccc(C=Cc2cc(O)cc(O)c2)cc1` [resveratrol], the “maximum suppression methane amount” value in the series on CH4 production (25 mg, high-concentrate diets) was “high-concentrate diets; 41%”; with CH4 production (25 mg, high-forage diets), 25 mg, high-forage diets; 60%;.
`O=[N+]([O-])OCCCO` [3NOP, 3-Nitrooxypropanol]: the “pH and temperature stability” value in series [4] is given as “Confirmed”. For the same molecule, in [5], the Average mass loss is around 0.25 % per day. Besides, the “Average Integrated Area” value in series [3] (3NOP:Adsorbent 1:1.5), in series [3] (3NOP:Adsorbent 1:2) and in [3] (3NOP:Adsorbent 1:2.5) was 2566.4 in each case. In addition, the “degree of CH4 suppression” value with cattle (added to the rumen through rumen cannula, 0.50 or 2.5 g per cow daily) is 7-10%. Further, the “decrease of CH4 yield” value with cattle (beef cattle, 2.0 g/day/cow) is 59%. Moreover, the persistence of inhibition result in the series with cattle (beef cattle, 2.0 g/day/cow) is “up to 112 days”. The “decrease of CH4 production” value in the series on cattle (setting [8]) is listed as “about 30%”; in the series on sheep (0.5 g/day) it was 29%. Also, the persistence of decrease entry in the series on cattle (setting [8]) was “up to 84 days”.
As to `O=S(=O)([O-])[O-].[Cu+2]` [Copper Sulfate], in series [2] (setting [6]), the 3NOP concentration is recorded as 7.814 mM.
With `O=C(O)/C=C/C(=O)O` [fumarate], the “decrease of CH4 production” value is given as 11.9% in the series on goats and 38% with rumen methanogens (3.5 g/L, continuous fermenters with forages as a substrate).
With `CC(CO)[N+](=O)[O-]` (stereo not drawn) [NPOH], in the series on CH4 production (10 mmol/L), the “maximum methane suppression amount” value is on record as “(NEOH), 41.7% (NPOH)”.
`O=[N+]([O-])O` [Nitrate]: the “maximum methane suppression amount” value with CH4 production (5 mM (Liu et al., 2017)) is 5 mM; 43.26% Liu et al., 2017); in the series on CH4 production (5 mmol/L (Wu et al., 2019)) it was 5 mmol/L: 32.92%; with CH4 production (20 mg/g dry matter (Alvarez-Hess et al. 2019)) it was 20 mg/g dry matter: 21%.
As to `CC(CO)[N+](=O)[O-]` (stereo not drawn) [2-nitropropanol], the “lowering of CH4 production” value in the series with cattle (steers) was 37%.
The molecule `O=C([O-])CC(O)(CC(=O)[O-])C(=O)[O-].[Bi+3]` [Bismuth Citrate] registered a 3NOP concentration in [2] (setting [6]) of 8.072 mM.
Take `O=[N+]([O-])CCO` [NEOH]: the “maximum methane suppression amount” value in the series with CH4 production (10 mmol/L) is listed as 10 mmol/L; 96.7% (NE), 96.7%.
Regarding `C#CC(=O)O` [propynoic acid], the “lowering of CH4 production” value is recorded as 67% with rumen methanogens (6 mmol/L) and 78% in the series on rumen methanogens (12 mmol/L).
`NCCCC[C@H](N)C(=O)O` [Lysine]: the entries for the “Average Integrated Area” value in series [3] (3NOP:Adsorbent 1:1.5), in [3] (3NOP:Adsorbent 1:2) and in series [3] (3NOP:Adsorbent 1:2.5) were 2336.2, 2308.9 and 2266.6, respectively. The molecule also had a 3NOP concentration in series [2] of 18.583 mM.
Regarding `CC[C@@]1([C@@H]2O[C@@H]([C@H]3O[C@@](O)(CO)[C@H](C)C[C@@H]3C)C[C@@H]2C)CC[C@H]([C@]2(C)CC[C@]3(C[C@H](O)[C@@H](C)[C@@H]([C@@H](C)[C@@H](OC)[C@H](C)C(=O)O)O3)O2)O1` [monensin], the “CH4 production by tropical cattle” value in the series with cattle (60 mg/day/cow) was “did not lower CH4 production”. Moreover, in the series with cattle (10-15 ppm), the CH4 suppression entry is listed as “no CH4 suppression”. Besides, the “lowering of CH4 production (g/kg DM intake)” value with cattle (fed at 24-35 mg/kg diet) is listed as “up to 10%”. The “decrease of CH4 production” value with cattle (tropical cattle, 250 mg/day/cow) is given as “about 30%”.

The values are drawn from patent US20250186566A1, “CELL-BASED VACCINES” (Arkea Bio Corp., priority 2023, published 2025).
